The test relates to human platelets. Kind of test: Calcium release in saponin-permeabilized human platelets (Quin2 fluorescence). It is filed as cell-based. To be noted: Platelet, pH 7.4, increase in Quin2-fluorescence, read-out: EC50 (effective concentration), release of Calcium. Here is the method:
Human platelets were purified in the presence of citrate by differential centrifugation and resuspended to ca 1×10exp9 cells/ml in Tyrode-HEPES-(N-2-hydroxyethyl-piperazine-N'-2 ethane-sulfonic acid)-buffer pH 7.4 containing 0.2% w/v Bovine Serum Albumin and 1 mM EGTA (Ethylene Glycol Bis (β-Aminoethyl Ether)N,N,N',N'-Tetraacidic acid). After 20 min, the platelets were centrifuged again (700×g, 20 min) and resuspended to the same concentration in 4 ml of "assay-buffer" containing:
1.2 mM Potassiumdihydrogenphosphate
25 mM HEPES-buffer, pH as indicated
After a further 30 min, the platelet suspension was diluted 5-fold into assay-buffer containing 2 μM Quin2 (2-[[2-[bis(carboxymethyl)amino]-5-methyl-phenoxy]methyl]-6-methoxy-8-[bis[…]]quinoline) salt as a fluorescence indicator for Calcium. To this suspension Saponin was added to a final concentration of 20 μg/ml to permeabilize the cells. The fluorescence of the suspension was continually monitored with a fluorescence spectrometer until a stable baseline was achieved. At this point, IP3 was added and the resulting release of Calcium measured as an increase in the intensity of the Quin2-fluorescence. An EC50 (effective concentration) value of 2×10exp-7M was obtained at pH 7.4. IP2-5-MP itself had no effect on release of Calcium. […]

Structures are written as SMILES.

Consider `O=P(O)(O)O[C@@H]1[C@H](O)[C@H](O)[C@@H](OP(=O)(O)O)[C@H](OP(=O)(O)O)[C@H]1O` [IP3, d-myo inositol(1.4.5)trisphosphate], for which the EC50 was 200 nM.
